≈ marks a conversion by molar mass, not a printed value. Where “and” joins values, the source holds several entries; their conditions need not be identical. Equal entries are not always repeated. Marks after values point to notes of the source that are not given here.
Key:
[1] = DPPH free radical scavenging assay; type: biochemical; conditions: mean ± SD, triplicate
Protocol: The free radical scavenging activity of extracts and compounds was evaluated according to described methods. The EC50 (μg/ml), which is the amount of sample necessary to inhibit by 50% the absorbance of free radical DPPH was calculated. Vitamin C was used as a standard control. All the analyses were carried out in triplicate.

[2] = Gallic acid equivalent antioxidant capacity (GEAC) assay; type: biochemical; conditions: laccase/ABTS, 420 nm after 240 s; mean ± SD
Protocol: The GEAC test was done as previously described with slight modifications. In a quartz cuvette, to 950 μL acetate buffer (pH =5.0, 100 mM), the following were added: 20 μL laccase (1 mM stock solution), 20 μL test sample, 10 μL ABTS (2,2′-azinobis(3-ethylbenzothiazoline-6-sulfonic acid) (74 mM stock solution). The purification of laccase from Sclerotinia sclerotiorum was done according to the protocol described. The sample concentrations in the assay mixture were 800, 400, 200, 100, 10 μg/mL for the extracts and 200, 100, 50, 25, 12.5, 6.25, 3.125, 1.56 μg/mL for the isolated compounds. The content of the generated ABTS^●+ radical was measured at 420 nm after 240 s reaction time and was converted to gallic acid equivalents by the use of a calibration curve (Pearson’s correlation coefficient: r = 0.997) constructed with 0, 4, 10, 14, 28, 56, 84 μM gallic acid standards rather than Trolox. Experiments were done in triplicate.

[3] = test system: Pseudomonas aeruginosa ATCC27853; test: Broth microdilution MIC/MMC; conditions: for MMC/MIC / MMC: P. aeruginosa; for MMC: sub-culturing after broth microdilution; for MIC: Pseudomonas aeruginosa, ATCC27853
[4] = test system: Shigella flexneri SDINT; test: Broth microdilution MIC/MMC; conditions: for MMC/MIC / MMC: S. flexneri; for MMC: sub-culturing after broth microdilution; for MIC: Shigella flexneri
[5] = test system: Staphylococcus aureus ATCC25923; test: Broth microdilution MIC/MMC; conditions: for MMC/MIC / MMC: S. aureus; for MMC: sub-culturing after broth microdilution; for MIC: Staphylococcus aureus, ATCC25923
[6] = test system: methicillin sensitive S. aureus MSSA01; test: Broth microdilution MIC/MMC; conditions: for MMC/MIC / MMC: MSSA01; for MMC: sub-culturing after broth microdilution; for MIC: Staphylococcus aureus
[7] = test system: methicillin resistant S. aureus MRSA03; test: Broth microdilution MIC/MMC; conditions: for MMC/MIC / MMC: MRSA03; for MMC: sub-culturing after broth microdilution; for MIC: Staphylococcus aureus
[8] = test system: Candida albicans ATCC10231; test: Broth microdilution MIC/MMC; conditions: for MMC/MIC / MMC: C. albicans; for MMC: sub-culturing after broth microdilution; for MIC: Candida albicans, ATCC10231
[9] = test system: Cryptococcus neoformans H99; test: Broth microdilution MIC/MMC; conditions: for MMC/MIC / MMC: C. neoformans; for MMC: sub-culturing after broth microdilution; for MIC: Cryptococcus neoformans, H99
[10] = test system: P. aeruginosa; test: Checkerboard combination with antibiotic (FIC); type: cell-based, Pseudomonas aeruginosa; conditions: combined with ciprofloxacin
[11] = test system: S. flexneri; test: Checkerboard combination with antibiotic (FIC); type: cell-based, Shigella flexneri; conditions: combined with ciprofloxacin
Protocol: (§1) The inoculum was initially prepared as described above. The test microorganisms were inoculated into a 96-well microtitre plates and a serial dilution of two antimicrobial agents: antibiotic and MeOH extract, compound 2 or 4. Each well consisted of unique combination of test sample and antibiotic concentrations. The plates were then incubated for 24 h at 37 °C. The analyses were performed in triplicates. And the antimicrobial agents interactions were evaluated by calculating the fractional inhibitory concentration (FIC) indices. The FIC is defined as follows: MIC of antibiotic tested in combination/MIC of antibiotic tested alone + MIC of extract/compound tested in combination/MIC of extract/compound tested alone. The FIC index is interpreted as FIC ≤ 0.5: synergistic effect, 0.5 < FIC ≤1: additive effect, 1 < FIC ≤2: indifferent effect, and FIC > 2.0: antagonistic effect.

[12] = test system: S. aureus; test: Checkerboard combination with antibiotic (FIC); type: cell-based, Staphylococcus aureus; conditions: combined with ciprofloxacin
[13] = test system: MSSA01; test: Checkerboard combination with antibiotic (FIC); type: cell-based, Staphylococcus aureus; conditions: combined with ciprofloxacin
[14] = test system: MRSA03; test: Checkerboard combination with antibiotic (FIC); type: cell-based, Staphylococcus aureus; conditions: combined with ciprofloxacin
[15] = test system: C. albicans; test: Checkerboard combination with antibiotic (FIC); type: cell-based, Candida albicans; conditions: combined with fluconazole, checkerboard
[16] = test system: C. neoformans; test: Checkerboard combination with antibiotic (FIC); type: cell-based, Cryptococcus neoformans; conditions: combined with fluconazole, checkerboard
[17] = test system: bacterial and yeast species; test: Checkerboard combination with antibiotics, whole panel; type: cell-based; conditions: overall statement over the microorganisms tested
Protocol: as §1

Cc1cc(O)c2c(c1)C(=O)c1cccc(O)c1C2=O [Compound 1, Chrysophanol]
DPPH free radical scavenging activity (EC50) [1]: 4.52 ± 0.36^d μg/mL
Gallic acid equivalent antioxidant capacity (GEAC) [2]: 104.87 ± 1.43^d μg/mL
MMC/MIC [3]: 2
MMC [3]: 128 µg/mL
MIC [3]: 64 µg/mL (≈ 252 µM)
MMC/MIC [4]: 1
MMC [4]: 32 µg/mL
MIC [4]: 32 µg/mL (≈ 126 µM)
MMC/MIC [5]: 2
MMC [5]: 64 µg/mL
MIC [5]: 32 µg/mL (≈ 126 µM)
MMC/MIC [6]: 1
MMC [6]: 64 µg/mL
MIC [6]: 64 µg/mL (≈ 252 µM)
MMC/MIC [7]: 2
MMC [7]: 128 µg/mL
MIC [7]: 64 µg/mL (≈ 252 µM)
MMC/MIC [8]: 1
MMC [8]: 64 µg/mL
MIC [8]: 64 µg/mL (≈ 252 µM)
MMC/MIC [9]: 1
MMC [9]: 32 µg/mL
MIC [9]: 32 µg/mL (≈ 126 µM)

Cc1cc(O)c2c(c1)C(=O)c1cc(O)cc(O)c1C2=O [Compound 4, Emodin]
Interpretation (of FIC index) [10]: Synergistic (FIC ≤ 0.5: synergistic effect)
FICEx / FIC2 / FIC5 (MIC of extract/compound tested in combination/MIC of extract/compound tested alone) ([10]; checkerboard): 0.125
Interpretation (of FIC index) [11]: Synergistic (FIC ≤ 0.5: synergistic effect)
FIC (fractional inhibitory concentration index) ([11]; checkerboard): 0.31
FICEx / FIC2 / FIC5 (MIC of extract/compound tested in combination/MIC of extract/compound tested alone) ([11]; checkerboard): 0.25
FICA (MIC of antibiotic tested in combination/MIC of antibiotic tested alone) ([11]; checkerboard, 24 h at 37 °C): 0.0625
Interpretation (of FIC index) [12]: Additive (0.5 < FIC ≤1: additive effect)
FIC (fractional inhibitory concentration index) ([12]; checkerboard): 0.625
FICEx / FIC2 / FIC5 (MIC of extract/compound tested in combination/MIC of extract/compound tested alone) ([12]; checkerboard): 0.125
FICA (MIC of antibiotic tested in combination/MIC of antibiotic tested alone) ([12]; checkerboard, 24 h at 37 °C): 0.5
FIC (fractional inhibitory concentration index) [13]: 0.5
FICEx / FIC2 / FIC5 (MIC of extract/compound tested in combination/MIC of extract/compound tested alone) [13]: 0.25
FICA (MIC of antibiotic tested in combination/MIC of antibiotic tested alone) ([13]; 24 h at 37 °C): 0.25
FIC (fractional inhibitory concentration index) [14]: 0.375
FICEx / FIC2 / FIC5 (MIC of extract/compound tested in combination/MIC of extract/compound tested alone) [14]: 0.125
FICA (MIC of antibiotic tested in combination/MIC of antibiotic tested alone) ([14]; 24 h at 37 °C): 0.25
FIC (fractional inhibitory concentration index) [15]: 0.75
FICEx / FIC2 / FIC5 (MIC of extract/compound tested in combination/MIC of extract/compound tested alone) [15]: 0.5
FICA (MIC of antibiotic tested in combination/MIC of antibiotic tested alone) ([15]; 24 h at 37 °C): 0.25
FIC (fractional inhibitory concentration index) [16]: 0.75
FICEx / FIC2 / FIC5 (MIC of extract/compound tested in combination/MIC of extract/compound tested alone) [16]: 0.5
FICA (MIC of antibiotic tested in combination/MIC of antibiotic tested alone) ([16]; 24 h at 37 °C): 0.25
DPPH free radical scavenging activity (EC50) [1]: 10.69 ± 0.51^f μg/mL
Gallic acid equivalent antioxidant capacity (GEAC) [2]: 79.54 ± 1.26 μg/mL and 79.54 ± 1.26^e μg/mL
effect of the association with ciprofloxacin (bacteria) / fluconazole (yeasts) [17]: synergistic
MMC/MIC [3]: 1
MMC [3]: 16 µg/mL
MIC [3]: 16 µg/mL (≈ 59.2 µM)
MMC/MIC [4]: 2
MMC [4]: 16 µg/mL
MIC [4]: 8 µg/mL (≈ 29.6 µM)
MMC/MIC [5]: 1
MMC [5]: 8 µg/mL
MIC [5]: 8 µg/mL (≈ 29.6 µM)
MMC/MIC [6]: 1
MMC [6]: 32 µg/mL
MIC [6]: 32 µg/mL (≈ 118 µM)
MMC/MIC [7]: 1
MMC [7]: 32 µg/mL
MIC [7]: 32 µg/mL (≈ 118 µM)
MMC/MIC [8]: 1
MMC [8]: 8 µg/mL
MIC [8]: 8 µg/mL (≈ 29.6 µM)
MMC/MIC [9]: 1
MMC [9]: 8 µg/mL
MIC [9]: 8 µg/mL (≈ 29.6 µM)

O=C1O[C@H]([C@@H](O)CO)C(O)=C1O [Vitamin C, reference compound]
DPPH free radical scavenging activity (EC50) [1]: 1.81 ± 0.19^h μg/mL

CC(C)[C@@H](C)C=C[C@@H](C)[C@H]1CC[C@H]2[C@]3(O)C=CC4(O)CC(O)CC[C@]4(C)[C@H]3CC[C@]12C (stereo partly shown) [Compound 3, Ergosta-6,22-diene-3,5,8-triol]
MMC/MIC [3]: 2
MMC [3]: 256 µg/mL
MIC [3]: 128 µg/mL (≈ 297 µM)
MMC [4]: >256 µg/mL
MIC [4]: 128 µg/mL (≈ 297 µM)
MMC [5]: >256 µg/mL
MIC [5]: 256 µg/mL (≈ 594 µM)
MMC [6]: >256 µg/mL
MIC [6]: > 256 µg/mL
MMC [7]: >256 µg/mL
MIC [7]: > 256 µg/mL
MMC [8]: >256 µg/mL
MIC [8]: 128 µg/mL (≈ 297 µM)
MMC/MIC [9]: 2
MMC [9]: 128 µg/mL
MIC [9]: 64 µg/mL (≈ 149 µM)

OC(Cn1cncn1)(Cn1cncn1)c1ccc(F)cc1F [fluconazole, reference compound]
MMC/MIC [8]: 1
MMC [8]: 1 µg/mL
MIC [8]: 1 µg/mL (≈ 3.27 µM)
MMC/MIC [9]: 1
MMC [9]: 2 µg/mL
MIC [9]: 2 µg/mL (≈ 6.53 µM)

O=C1c2cc(O)cc(O)c2C(=O)c2c(O)cc(CO)cc21 [Compound 5, 6-hydroxyemodin (Citreorosein)]
DPPH free radical scavenging activity (EC50) [1]: 9.88 ± 0.62^f μg/mL
Gallic acid equivalent antioxidant capacity (GEAC) [2]: 81.09 ± 0.93 μg/mL and 81.09 ± 0.93^e μg/mL
MMC/MIC [3]: 2
MMC [3]: 64 µg/mL
MIC [3]: 32 µg/mL (≈ 112 µM)
MMC/MIC [4]: 1
MMC [4]: 32 µg/mL
MIC [4]: 32 µg/mL (≈ 112 µM)
MMC/MIC [5]: 1
MMC [5]: 32 µg/mL
MIC [5]: 32 µg/mL (≈ 112 µM)
MMC/MIC [6]: 2
MMC [6]: 256 µg/mL
MIC [6]: 128 µg/mL (≈ 447 µM)
MMC/MIC [7]: 2
MMC [7]: 256 µg/mL
MIC [7]: 128 µg/mL (≈ 447 µM)
MMC/MIC [8]: 2
MMC [8]: 32 µg/mL
MIC [8]: 16 µg/mL (≈ 55.9 µM)
MMC/MIC [9]: 2
MMC [9]: 32 µg/mL
MIC [9]: 16 µg/mL (≈ 55.9 µM)

O=C(O)c1cn(C2CC2)c2cc(N3CCNCC3)c(F)cc2c1=O [ciprofloxacin, Ciprofloxacin, reference compound]
MMC/MIC [3]: 1
MMC [3]: 0.5 µg/mL
MIC [3]: 0.5 µg/mL (≈ 1.51 µM)
MMC/MIC [4]: 1
MMC [4]: 8 µg/mL
MIC [4]: 8 µg/mL (≈ 24.1 µM)
MMC/MIC [5]: 1
MMC [5]: 0.5 µg/mL
MIC [5]: 0.5 µg/mL (≈ 1.51 µM)
MMC/MIC [6]: 1
MMC [6]: 4 µg/mL
MIC [6]: 4 µg/mL (≈ 12.1 µM)
MMC/MIC [7]: 1
MMC [7]: 4 µg/mL
MIC [7]: 4 µg/mL (≈ 12.1 µM)
